“And” between values parts separate entries of the source, which are not always exact repeats. Equal values may be shown once.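 In this assay, cells in 96-well plates receive the compound at five concentrations for 48 hours. Endpoints are linearly interpolated between the surrounding concentrations. At the GI50, growth is halved. TGI denotes the concentration required for complete inhibition of growth.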 *1 amine or outer side, *2 acyl side, *3 side chain or, on linkers, in order; H or OH if unused. Where a SMILES comes first, the peptide text is derived from it. Bridges are numbered along the chain shown (N, C = ends). [ ]: non-standard residue; d: D form. The star is where a group is joined. ξ: configuration not given here. X34 = O=C(C(CCCCNO[*:3])N[*:1])[*:2]; Fmoc = O=C(OCC1c2ccccc2-c2ccccc21)*; ξW = NC(Cc1c[nH]c2ccccc12)C(=O)O; ξP = O=C(O)C1CCCN1
Tests used:
Assay in all cases: NCI anticancer screen, dose series, 48 h
CAKI-1 renal = system: CAKI-1 renal
DU-145 prostate = system: DU-145 prostate
HOP-62 NSCLC = system: HOP-62 NSCLC
IGROV1 ovarian = system: IGROV1 ovarian
OVCAR-5 ovarian = system: OVCAR-5 ovarian
SF-539 CNS = system: SF-539 CNS
SN12C renal = system: SN12C renal

Row | SMILES | TGI (CAKI-1 renal) | TGI (DU-145 prostate) | TGI (HOP-62 NSCLC) | TGI (IGROV1 ovarian) | TGI (OVCAR-5 ovarian) | TGI (SF-539 CNS) | TGI (SN12C renal) | GI50 (CAKI-1 renal) | GI50 (DU-145 prostate) | GI50 (HOP-62 NSCLC) | GI50 (OVCAR-5 ovarian) | GI50 (SF-539 CNS)
1 | Cc1cc(N(CCC#N)CCC#N)ccc1/C=N/NC(=O)c1cc(Cl)ccc1O | > 100 µM | > 100 µM | > 100 µM | > 100 µM | > 100 µM | > 100 µM | > 100 µM |  |  |  |  | 
2 | NC(=O)CNC(=O)C1CCCN1C(=O)C1CCCCNOC(=O)CC[C@@H](NC(=O)OCC2c3ccccc3-c3ccccc32)C(=O)NC(Cc2c[nH]c3ccccc23)C(=O)N1 (stereo not given in full) (Fmoc-[dE][ξW][X34][ξP]G-NH2; ester 1-3) | > 100 µM | > 100 µM | > 100 µM | > 100 µM | > 100 µM | > 100 µM | > 100 µM |  |  |  |  | 
3 | Cc1nnc(Nc2ccccc2)o1 | > 100 µM | > 100 µM |  |  | > 100 µM | > 100 µM | > 100 µM |  |  |  |  | 
4 | COC(=O)C(/C(=N/NC(N)=O)C(=O)Nc1ccc(C)cc1)c1nc2ccc([N+](=O)[O-])cc2[nH]c1=O (stereo not given) | > 100 µM |  | > 100 µM | > 100 µM | > 100 µM | > 100 µM | > 100 µM |  |  |  |  | 
5 | CN(CCC#N)c1ccc(/C=C2\SC(=S)NC2=O)cc1 | > 100 µM | > 100 µM | > 100 µM | > 100 µM | > 100 µM | > 100 µM | > 100 µM |  |  |  |  | 
6 | Cc1ccc([C@@H]2[C@@H](C(=O)c3ccccn3)[C@H](c3ccc(C)cc3)C[C@](O)(c3ccccn3)[C@H]2C(=O)c2ccccn2)cc1 | > 100 µM | > 100 µM | > 100 µM | > 100 µM | > 85.8 µM | > 100 µM | > 100 µM |  |  |  |  | 
7 | COc1cccc2c(N)c3cccc(C(=O)NCCN(C)C)c3nc12 | 2.21 µM | 2.64 µM | 0.833 µM | 1.65 µM | 3.4 µM | 0.758 µM | 0.488 µM |  |  |  |  | 
8 | CC1(C)OCC(COC(=O)C=[N+]=[N-])O1 (stereo not given) | > 100 µM | > 100 µM | > 100 µM | > 100 µM | > 100 µM |  | > 100 µM |  |  |  |  | 
9 | CN1C(=O)N(c2ccccc2)C2(CCN(CC3COc4ccccc4O3)CC2)C1=O (stereo not given) | > 100 µM | > 100 µM | > 100 µM | > 100 µM | > 100 µM | > 100 µM | > 100 µM |  |  |  |  | 
10 | COc1ccc(C2CC(c3c(O)ccc4ccccc34)=NN2c2ccc([N+](=O)[O-])cc2[N+](=O)[O-])cc1OC (stereo not given) | 69.1 µM | > 100 µM | > 71.7 µM | > 71.2 µM | > 90.6 µM | > 79.8 µM | > 100 µM |  |  |  |  | 
11 | Cc1nnc2n1N=C(c1cc(F)c(Cl)cc1Cl)/C(=C/c1ccc(Cl)cc1)S2 | 41.4 µM | 48.6 µM | 31.2 µM | 53.9 µM | 28 µM | 92.3 µM | 36 µM |  |  |  |  | 
12 | C[C@@]12[C@H]3CC[C@@H]1[C@H](O)C(=O)N2CC3 | > 100 µM | > 100 µM | > 100 µM | > 100 µM | > 100 µM | > 100 µM |  |  |  |  |  | 
13 | COCOC1/C=C/CCCC#C[C@H](C)C(=O)CC1 (stereo not given in full) | 24.7 µM | 28 µM | 34.8 µM | 22.7 µM | 20.1 µM | 30.4 µM | 23.6 µM |  |  |  |  | 
14 | CC(C)(C)c1ccc2c(c1)CNCCNCc1cc(C(C)(C)C)ccc1OCC1(CO2)COc2ccc(C(C)(C)C)cc2CNCCNCc2cc(C(C)(C)C)ccc2OC1 | 2.74 µM | 3.15 µM | 2.66 µM | 2.5 µM | 3.06 µM | 2.76 µM |  |  |  |  |  | 
15 | COC(=O)C1(C(=O)OC)CC2=C(S(=O)(=O)c3ccccc3)C[C@H](S(=O)(=O)c3ccccc3)[C@H]2C1 | > 100 µM | > 100 µM | > 100 µM | 49.9 µM | > 100 µM |  | > 100 µM |  |  |  |  | 
16 | O=C(Nc1ccc(Br)cc1)c1c(-c2ccccc2)c2ccc(O)cc2oc1=O | > 10 µM | > 10 µM | > 10 µM | > 10 µM | > 10 µM | > 10 µM | > 10 µM |  |  |  |  | 
17 | CC(C)=CCOC(=O)C(C)=[N+]=[N-] | > 100 µM | > 100 µM | > 100 µM | > 100 µM | > 100 µM |  | > 100 µM |  |  |  |  | 
18 | CC(=O)OCC1OC(OC(C)(C)CC/C=C(\C)[C@@H]2C/C=C(\C)CC/C=C(\C)CC2)C(O)C(O)C1OC(C)=O (stereo not given in full) | > 100 µM and 35.3 µM | > 100 µM and 32.1 µM | > 100 µM and 30.4 µM | > 79.1 µM and 32 µM | > 100 µM and 34.1 µM | 82.9 µM and 33.9 µM | > 94.1 µM and 41.2 µM | 58.6 µM and 18.7 µM | > 76.3 µM and 17 µM | > 82.7 µM and 16.8 µM | > 100 µM and 16.6 µM | 32.6 µM and 13.5 µM
19 | CCN1CC2=C(NC(=S)NC2c2ccc(Cl)cc2)/C(=C/c2ccc(Cl)cc2)C1 (stereo not given) | > 100 µM | > 100 µM | > 100 µM | > 100 µM | > 100 µM |  |  |  |  |  |  | 
20 | O=C(CN1c2ccccc2Sc2ccccc21)N1CCNCC1 |  | > 100 µM | > 100 µM | > 100 µM | > 100 µM | > 100 µM | > 100 µM |  |  |  |  | 
21 | Cc1c(-c2nc3ccccc3[nH]2)c(=O)n(-c2ccccc2)n1C | > 100 µM | > 100 µM | > 100 µM | > 100 µM |  | > 100 µM | > 100 µM |  |  |  |  | 
22 | Nc1ccc2nc(-c3ccccn3)c(-c3ccccn3)nc2c1 | > 100 µM | > 100 µM |  | > 100 µM | > 100 µM | > 100 µM | > 100 µM |  |  |  |  | 
23 | CC(O[Si](c1ccccc1)(c1ccccc1)C(C)(C)C)[C@H](NC(=O)OC(C)(C)C)C(=O)O[Si](c1ccccc1)(c1ccccc1)C(C)(C)C (stereo not given in full) | 27 µM | 25.6 µM | 34.2 µM | 31.9 µM | 30.4 µM |  |  |  |  |  |  | 
24 | O=C(CC(=O)n1nc(-c2ccccc2)c(N=Nc2ccccc2C(=O)O)c1-c1ccccc1)Nc1ccc(Cl)cc1 |  |  | > 100 µM | > 100 µM | > 100 µM |  |  |  |  |  |  | 
25 | CN1C(=O)C2C(=O)N(Cc3ccccc3)CC(=O)N2c2cccnc21 (stereo not given) | > 100 µM |  | > 100 µM | > 100 µM | > 100 µM | > 100 µM |  |  |  |  |  | 
26 | OCC1CCCCCCCCCCC12SCCCS2 (stereo not given) | > 100 µM | > 100 µM | > 100 µM | > 100 µM | > 100 µM |  |  |  |  |  |  | 
27 | O=C(/C=C/c1ccc(O)c([N+](=O)[O-])c1)CC(=O)/C=C/c1ccc(O)c([N+](=O)[O-])c1 |  | > 100 µM | > 100 µM | 76.4 µM | > 100 µM | > 100 µM | > 100 µM |  |  |  |  | 
